Measured values published in ChEMBL document CHEMBL5260828, “Amphiphilic glycoconjugates as potential anti-cancer chemotherapeutics” (Eur J Med Chem, 2018).
pIC50: −log10 of the molar value. ≈ marks a conversion by molar mass, not a printed value.

Key:
[1] = target: Fatty acid synthase (Gallus gallus, UniProt P12276); assay: Inhibition of Fatty acid synthase in chicken liver using [3H]-acetyl CoA as substrate preincubated for 30 mins followed by substrate addition and measured after 10 mins in presence of NADPH by scintillation counting analysis; assay type: tissue-based
Chain of Fatty acid synthase (P12276 whole entry): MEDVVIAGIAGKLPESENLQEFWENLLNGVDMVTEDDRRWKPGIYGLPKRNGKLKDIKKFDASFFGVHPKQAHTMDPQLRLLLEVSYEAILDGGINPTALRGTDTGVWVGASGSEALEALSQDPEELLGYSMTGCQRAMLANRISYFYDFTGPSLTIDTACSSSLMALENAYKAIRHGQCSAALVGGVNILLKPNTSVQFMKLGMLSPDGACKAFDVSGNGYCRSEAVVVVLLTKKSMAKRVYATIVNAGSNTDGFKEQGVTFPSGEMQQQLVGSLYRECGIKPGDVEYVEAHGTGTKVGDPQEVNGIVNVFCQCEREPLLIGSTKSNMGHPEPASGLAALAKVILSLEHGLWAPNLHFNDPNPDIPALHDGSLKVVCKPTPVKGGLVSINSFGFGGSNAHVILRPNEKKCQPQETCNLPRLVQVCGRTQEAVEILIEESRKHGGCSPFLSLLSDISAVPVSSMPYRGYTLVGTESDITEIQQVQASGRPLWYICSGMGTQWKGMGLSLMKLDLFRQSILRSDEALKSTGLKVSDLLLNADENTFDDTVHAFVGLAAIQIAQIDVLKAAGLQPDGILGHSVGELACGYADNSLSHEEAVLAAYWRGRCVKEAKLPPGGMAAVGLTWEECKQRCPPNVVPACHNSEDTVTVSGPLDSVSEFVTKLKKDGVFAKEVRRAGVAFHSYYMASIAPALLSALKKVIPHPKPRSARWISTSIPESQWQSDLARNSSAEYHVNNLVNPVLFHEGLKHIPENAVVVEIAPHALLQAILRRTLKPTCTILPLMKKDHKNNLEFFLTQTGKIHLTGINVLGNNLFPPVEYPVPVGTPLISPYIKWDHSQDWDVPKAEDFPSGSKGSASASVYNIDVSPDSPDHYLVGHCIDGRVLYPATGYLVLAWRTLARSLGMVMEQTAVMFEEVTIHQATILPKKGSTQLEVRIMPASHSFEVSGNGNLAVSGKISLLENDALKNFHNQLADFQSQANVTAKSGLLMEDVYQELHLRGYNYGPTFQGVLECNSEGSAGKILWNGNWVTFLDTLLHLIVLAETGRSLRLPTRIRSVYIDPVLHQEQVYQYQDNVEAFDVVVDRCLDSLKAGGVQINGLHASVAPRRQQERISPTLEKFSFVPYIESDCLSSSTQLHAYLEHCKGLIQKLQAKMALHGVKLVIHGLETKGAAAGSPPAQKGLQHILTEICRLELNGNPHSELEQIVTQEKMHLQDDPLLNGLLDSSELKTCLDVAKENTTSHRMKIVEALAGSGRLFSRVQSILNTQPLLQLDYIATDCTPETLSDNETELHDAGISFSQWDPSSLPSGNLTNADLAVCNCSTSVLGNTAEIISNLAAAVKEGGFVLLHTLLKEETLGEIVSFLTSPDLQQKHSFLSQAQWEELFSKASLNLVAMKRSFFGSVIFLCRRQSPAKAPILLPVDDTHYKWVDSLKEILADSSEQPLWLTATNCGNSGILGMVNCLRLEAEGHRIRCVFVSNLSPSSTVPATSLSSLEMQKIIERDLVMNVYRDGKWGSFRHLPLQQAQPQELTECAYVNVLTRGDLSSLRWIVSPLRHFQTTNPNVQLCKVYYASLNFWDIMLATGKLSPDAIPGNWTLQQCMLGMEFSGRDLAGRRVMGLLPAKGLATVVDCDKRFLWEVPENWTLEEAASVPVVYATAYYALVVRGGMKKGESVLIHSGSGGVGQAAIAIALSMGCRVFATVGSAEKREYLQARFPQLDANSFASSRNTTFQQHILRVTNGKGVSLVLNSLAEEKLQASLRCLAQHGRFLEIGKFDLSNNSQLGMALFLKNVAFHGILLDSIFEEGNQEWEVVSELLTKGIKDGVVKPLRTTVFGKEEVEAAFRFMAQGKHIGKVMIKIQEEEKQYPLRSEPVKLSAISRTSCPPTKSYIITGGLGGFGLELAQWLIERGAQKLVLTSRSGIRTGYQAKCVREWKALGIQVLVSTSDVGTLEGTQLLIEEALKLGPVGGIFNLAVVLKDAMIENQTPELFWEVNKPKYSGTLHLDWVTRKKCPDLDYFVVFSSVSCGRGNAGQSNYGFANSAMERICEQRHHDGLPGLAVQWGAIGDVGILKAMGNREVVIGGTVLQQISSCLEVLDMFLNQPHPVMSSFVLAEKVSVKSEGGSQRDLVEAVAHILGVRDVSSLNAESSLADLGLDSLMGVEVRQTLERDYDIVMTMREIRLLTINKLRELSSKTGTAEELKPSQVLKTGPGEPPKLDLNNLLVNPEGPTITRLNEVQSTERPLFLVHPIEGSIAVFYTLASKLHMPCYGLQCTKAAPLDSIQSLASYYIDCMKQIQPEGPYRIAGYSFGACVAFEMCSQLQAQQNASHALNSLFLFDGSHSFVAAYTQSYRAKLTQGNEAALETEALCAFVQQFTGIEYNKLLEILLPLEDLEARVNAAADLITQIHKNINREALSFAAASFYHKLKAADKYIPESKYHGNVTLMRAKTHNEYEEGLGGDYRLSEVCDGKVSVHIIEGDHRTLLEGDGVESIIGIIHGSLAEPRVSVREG

[2] = test system: K562; assay: Cytotoxicity against human K562 cells by colorimetric assay; assay type: functional, cell-based
[3] = test system: HeLa S3; assay: Cytotoxicity against human HeLa S3 cells; assay type: functional, cell-based; conditions: Homo sapiens, HeLa S3; read-out: IC50
[4] = target: RAC-alpha serine/threonine-protein kinase (Homo sapiens, UniProt P31749); assay: Inhibition of AKT1 (unknown origin) in presence of ATP by ELISA
Chain of RAC-alpha serine/threonine-protein kinase (P31749 whole entry): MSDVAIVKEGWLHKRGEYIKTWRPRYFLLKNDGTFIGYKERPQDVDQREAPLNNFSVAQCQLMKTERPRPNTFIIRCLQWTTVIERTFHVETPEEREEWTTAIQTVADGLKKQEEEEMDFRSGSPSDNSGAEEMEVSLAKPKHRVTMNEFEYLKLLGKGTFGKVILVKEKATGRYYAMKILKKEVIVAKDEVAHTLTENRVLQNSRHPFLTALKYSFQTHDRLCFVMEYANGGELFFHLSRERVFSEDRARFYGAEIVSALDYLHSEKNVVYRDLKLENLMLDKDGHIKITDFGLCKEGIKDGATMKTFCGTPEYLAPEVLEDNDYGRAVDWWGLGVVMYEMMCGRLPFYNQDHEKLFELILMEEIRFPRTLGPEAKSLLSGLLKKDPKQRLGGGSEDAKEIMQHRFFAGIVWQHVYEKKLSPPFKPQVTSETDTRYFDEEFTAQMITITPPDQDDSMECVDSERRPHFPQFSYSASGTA

[5] = test system: PC-3; assay: Cytotoxicity against human PC-3 cells assessed as reduction in cell viability incubated for 48 hrs by MTS assay; assay type: functional, cell-based; conditions: for CC50: PC-3, time 48 hrs
[6] = test system: MIA PaCa-2; assay: Cytotoxicity against human MIA PaCa-2 cells assessed as reduction in cell viability incubated for 48 hrs by MTS assay; assay type: functional, cell-based; conditions: for CC50: MIA PaCa-2, time 48 hrs
[7] = test system: BT-474; assay: Cytotoxicity against human BT-474 cells assessed as reduction in cell viability incubated for 48 hrs by MTS assay; assay type: functional, cell-based
[8] = test system: DU-145; assay: Cytotoxicity against human DU-145 cells assessed as reduction in cell viability incubated for 48 hrs by MTS assay; assay type: functional, cell-based; conditions: for CC50: DU-145, time 48 hrs
[9] = test system: JIMT-1; assay: Cytotoxicity against human JIMT-1 cells assessed as reduction in cell viability incubated for 48 hrs by MTS assay; assay type: functional, cell-based; conditions: for CC50: JIMT-1, time 48 hrs
[10] = test system: MDA-MB-231; assay: Cytotoxicity against human MDA-MB-231 cells assessed as reduction in cell viability incubated for 48 hrs by MTS assay; assay type: functional, cell-based
[11] = test system: K562; assay: Cytotoxicity against human K562 cells; assay type: functional, cell-based
[12] = test system: A549; assay: Cytotoxicity against human A549 cells incubated for 72 hrs by MTT assay; assay type: functional, cell-based; conditions: A549, 72 h
[13] = test system: SGC-7901; assay: Cytotoxicity against human SGC-7901 cells incubated for 48 hrs by MTT assay; assay type: functional, cell-based; conditions: SGC-7901, 48 h
[14] = test system: MCF7; assay: Cytotoxicity against human MCF7 cells incubated for 48 hrs by MTT assay; assay type: functional, cell-based; conditions: MCF7, 48 h
[15] = test system: HepG2; assay: Cytotoxicity against human HepG2 cells incubated for 48 hrs by MTT assay; assay type: functional, cell-based; conditions: HepG2, 48 h
[16] = test system: A549; assay: Cytotoxicity against human A549 cells incubated for 48 hrs by MTT assay; assay type: functional, cell-based; conditions: A549, 48 h
[17] = test system: HeLa; assay: Cytotoxicity against human HeLa cells incubated for 48 hrs by MTT assay; assay type: functional, cell-based

Compound `CC/C=C\C/C=C\C/C=C\CCCCCCCC(=O)OC[C@H](CO[C@@H]1O[C@H](CO[C@H]2O[C@H](CO)[C@H](O)[C@H](O)[C@H]2O)[C@H](O)[C@H](O)[C@H]1O)OC(=O)CCCCCCCCCCCCCCCCC` has a pIC50 [1] of 4.81.

`CCCCCCCCCCCCCCCCCCOCC(COC(=O)NCCCO[C@@H]1O[C@H](CO)[C@H](O)[C@H](O)[C@H]1O)OCC` (stereo not given in full) gave a pIC50 [2] of 4.77.

For `CO[C@@H]1[C@@H](OC(N)=O)[C@@H](OC)[C@H](O[C@@H]2C[C@H]3O[C@@](O)(C2)[C@H](C)C(=O)O[C@@H](/C=C/C=C/Br)C/C(C)=C/C(=O)C3(C)C)O[C@H]1C`, the IC50 [3] was 1.2 µg/mL (≈ 1.78 µM).

In the case of `CCCCCCCCCCCCCCCCCC(=O)OCC(COC(=O)CCCCCCCCCCCCCCCCC)O[C@@H]1O[C@H](C(=O)O)[C@@H](O)[C@H](O)[C@H]1O`, the pIC50 [4] was under 4.00.

`CCCCCCCCCCCCCCCCOC[C@H](CO[C@H]1O[C@H](CNC(=O)CCCc2ccc(N(CCCl)CCCl)cc2)[C@@H](O)[C@H](O)[C@H]1N)OC` was tested, and the pIC50 ([5]; PC-3, 48 h) was 5.22, the pIC50 ([6]; MIA PaCa-2, 48 h) was 5.22 and the pIC50 ([7]; BT-474, 48 h) was 5.22. The pIC50 ([8]; DU-145, 48 h) was 5.22, the pIC50 ([9]; JIMT-1, 48 h) was 5.22 and the pIC50 ([10]; MDA-MB-231, 48 h) was 5.22.

`CC/C=C\C/C=C\C/C=C\CCCCCCCC(=O)OC[C@H](CO[C@@H]1O[C@H](CO[C@H]2O[C@H](CO)[C@H](O)[C@H](O)[C@H]2O)[C@H](O)[C@H](O)[C@H]1O)OC(=O)CCCCCCCCCCCCCCCCCCC` gave a pIC50 [1] of 4.81.

Work on `CC(=O)OC[C@H]1O[C@@H](Oc2cc(C)c(O)cc2C/C=C(\C)CC/C=C(\C)C[C@H](C=C(C)C)OC(C)=O)[C@H](O)[C@@H](OC(C)=O)[C@H]1OC(C)=O` yielded an IC50 [11] of 3.1 µg/mL (≈ 4.59 µM).

`CC/C=C\C/C=C\C/C=C\CCCCCCCC(=O)O[C@H](COC(=O)CCCCCCCCCCCCCCC)CO[C@@H]1O[C@H](CO[C@H]2O[C@H](CO)[C@H](O)[C@H](O)[C@H]2O)[C@H](O)[C@H](O)[C@H]1O` showed a pIC50 [1] of 4.81.

Work on `CCCCCCCCCCCCCCCCOC[C@H](CO[C@@H]1O[C@H](CN)[C@@H](O)[C@H](O)[C@H]1N)OC` yielded a CC50 [5] of 3.5 µM, a CC50 [6] of 3.5 µM and a CC50 ([7]; BT-474, time 48 hrs) of 7.5 µM. The CC50 [8] was 5.2 µM, the CC50 [9] was 3.5 µM and the CC50 ([10]; MDA-MB-231, time 48 hrs) was 3 µM.

Work on `CCCCCCCCCCCCC(=O)OCc1cn(C[C@H]2O[C@H](OC)[C@H](O)[C@@H](O)[C@@H]2O)nn1` yielded a pIC50 [12] of 4.68.

`CCCCCCCCCCCCCCCCCCOCC(CO[C@@H]1O[C@H](CO)[C@H](O)[C@H](O)[C@H]1O)OCC` (stereo not given in full) showed a pIC50 [2] of 5.60.

In the case of `CCCCCCCCCCCCCCCCCCCC(=O)O[C@H](COC(=O)CCCCCCCCCCCCCCC)CO[C@@H]1O[C@H](CO[C@H]2O[C@H](CO)[C@H](O)[C@H](O)[C@H]2O)[C@H](O)[C@H](O)[C@H]1O`, the pIC50 [1] was 4.81.

For `CCCCCCCCCCCCC(=O)OCc1cn(C[C@H]2O[C@H](OC)[C@H](O)[C@@H](O)[C@H]2O)nn1`, the pIC50 [12] was 4.68.

`CO[C@@H]1[C@@H](O)[C@@H](OC)[C@H](O[C@@H]2[C@@H](OC)[C@H](C)O[C@@H](O[C@@H]3C[C@H]4O[C@@](O)(C3)[C@H](C)C(=O)O[C@@H](/C=C/C=C/Br)C/C(C)=C/C(=O)C4(C)C)[C@@H]2OC)O[C@H]1C` showed an IC50 [3] of 0.17 µg/mL (≈ 0.211 µM).

For `CCCCCCCCCCCCCC(=O)OCc1cn(C[C@H]2O[C@H](OC)[C@H](O)[C@@H](O)[C@H]2O)nn1`, the pIC50 [12] was 4.68.

Compound `CCCCCCCCCCCCCCCCCCOCC(COC(=O)NCCCO[C@@H]1O[C@H](CO)[C@@H](O[C@@H]2O[C@H](CO)[C@H](O)[C@H](O)[C@H]2O)[C@H](O)[C@H]1O)OCC` (stereo not given in full) has a pIC50 [2] of 5.15.

Work on `CCCCC[C@@H]1CCCCCCCCCC(=O)O[C@H]2[C@@H](O)[C@H](O[C@H]3[C@H](O1)O[C@H](CO)[C@@H](O)[C@@H]3O)O[C@@H](C)[C@@H]2O[C@@H]1O[C@@H](C)[C@H](O[C@@H]2O[C@@H](C)[C@H](OC(=O)[C@@H](C)CC)[C@@H](OC(=O)/C=C/c3ccccc3)[C@H]2O)[C@@H](O[C@@H]2O[C@@H](C)[C@H](O)[C@@H](O)[C@H]2O)[C@H]1OC(=O)[C@@H](C)CC` yielded a pIC50 [13] of 5.37, a pIC50 [14] of 5.37 and a pIC50 [15] of 5.37. For the same compound, the pIC50 [16] was 5.37 and the pIC50 [17] was 5.37.

In the case of `CCCCCCCCCCCCCCCCOC[C@H](CN)O[C@@H]1O[C@@H](C)[C@H](O)[C@@H](O)[C@H]1O`, the CC50 [5] was 11 µM, the CC50 [6] was 8.5 µM and the CC50 [8] was 8.2 µM. It also gave a CC50 [9] of 5.5 µM.
